# Source: patent US20260015350A1, “AZAQUINAZOLINE PAN-KRAS INHIBITORS” (Mirati Therapeutics, Inc., priority 2022, published 2026)
# Legend:
# [1] = target: T1, KRas^G13D (Homo sapiens, UniProt P01116, G13D); experiment: KRas binding assay (TR-FRET tracer displacement), KRas G13D; conditions: TR-FRET tracer displacement, KRas G13D
# T1 construct: Biotinylated KRas (corresponding to amino acids 1-169, produced at Accelegan Inc.); biotin (biotinylated); purchased Accelegan Inc
# [2] = target: T2, KRas^G12D (Homo sapiens, UniProt P01116, G12D); experiment: KRas binding assay (TR-FRET tracer displacement), KRas G12D
# T2 construct: Biotinylated KRas (corresponding to amino acids 1-169, produced at Accelegan Inc.); biotin (biotinylated); purchased Accelegan Inc
# T2 sequence (P01116 1-169 isoform P01116-2 G12D): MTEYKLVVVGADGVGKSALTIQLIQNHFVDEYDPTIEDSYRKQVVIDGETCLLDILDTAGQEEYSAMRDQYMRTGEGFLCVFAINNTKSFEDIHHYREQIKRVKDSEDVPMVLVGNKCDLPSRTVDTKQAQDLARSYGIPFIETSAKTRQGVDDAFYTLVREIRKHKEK
# [3] = target: T3, KRas^G12S (Homo sapiens, UniProt P01116, G12S); experiment: KRas binding assay (TR-FRET tracer displacement), KRas G12S; conditions: TR-FRET tracer displacement, KRas G12S
# T3 construct: Biotinylated KRas (corresponding to amino acids 1-169, produced at Accelegan Inc.); biotin (biotinylated); purchased Accelegan Inc
# T3 sequence (P01116 1-169 isoform P01116-2 G12S): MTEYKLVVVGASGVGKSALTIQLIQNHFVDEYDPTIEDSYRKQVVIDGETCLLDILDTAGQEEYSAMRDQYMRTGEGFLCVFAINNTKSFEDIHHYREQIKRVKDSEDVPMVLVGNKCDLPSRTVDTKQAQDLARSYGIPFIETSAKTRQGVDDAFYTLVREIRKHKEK
# [4] = target: T4, KRas^Q61H (Homo sapiens, UniProt P01116, Q61H); experiment: KRas binding assay (TR-FRET tracer displacement), KRas Q61H; conditions: TR-FRET tracer displacement, KRas Q61H
# T4 construct: Biotinylated KRas (corresponding to amino acids 1-169, produced at Accelegan Inc.); biotin (biotinylated); purchased Accelegan Inc
# T4 sequence (P01116 1-169 isoform P01116-2 Q61H): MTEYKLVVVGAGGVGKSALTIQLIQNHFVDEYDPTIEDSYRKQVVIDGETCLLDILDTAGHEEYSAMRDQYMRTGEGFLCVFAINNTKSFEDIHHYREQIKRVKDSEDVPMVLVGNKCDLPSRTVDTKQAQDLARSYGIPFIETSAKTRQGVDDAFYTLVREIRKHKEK
# [5] = target: T5, KRas^G12R (Homo sapiens, UniProt P01116, G12R); experiment: KRas binding assay (TR-FRET tracer displacement), KRas G12R
# T5 construct: Biotinylated KRas (corresponding to amino acids 1-169, produced at Accelegan Inc.); biotin (biotinylated); purchased Accelegan Inc
# T5 sequence (P01116 1-169 isoform P01116-2 G12R): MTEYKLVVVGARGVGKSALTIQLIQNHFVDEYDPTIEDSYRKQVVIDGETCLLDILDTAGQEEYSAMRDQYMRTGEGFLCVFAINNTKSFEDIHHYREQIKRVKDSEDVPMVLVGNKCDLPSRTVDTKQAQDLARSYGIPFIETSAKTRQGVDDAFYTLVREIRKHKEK
# [6] = test system: KRas-mediated phosphorylation of ERK in AsPC-1 cells; experiment: Inhibition of KRas-mediated phosphorylation of ERK (Cisbio HTRF pERK), AsPC-1 cells; assay type: cell-based; conditions: Homo sapiens, ASPC1, AsPC-1 cells; HTRF pERK
# Procedure, shortened: (§1)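 Signal read by HTRF (d2/Cryptate antibody pair, 2 hr room-temperature incubation on lysate). Cells: 6,000 per well, 3 hr compound exposure. Titration: 10 uM highest, 3-fold, 10 points.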
# [7] = target: T6, KRas^G12C (Homo sapiens, UniProt P01116, G12C); experiment: KRas binding assay (TR-FRET tracer displacement), KRas G12C; conditions: TR-FRET tracer displacement, KRas G12C
# T6 construct: Biotinylated KRas (corresponding to amino acids 1-169, produced at Accelegan Inc.); biotin (biotinylated); purchased Accelegan Inc
# T6 sequence (P01116 1-169 isoform P01116-2 G12C): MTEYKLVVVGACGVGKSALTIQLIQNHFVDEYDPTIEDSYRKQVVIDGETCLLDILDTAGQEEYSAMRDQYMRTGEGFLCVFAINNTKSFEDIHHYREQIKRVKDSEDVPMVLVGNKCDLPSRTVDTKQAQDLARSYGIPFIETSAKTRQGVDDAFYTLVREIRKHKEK
# [8] = target: T7, KRas^WT (Homo sapiens, UniProt P01116); experiment: KRas binding assay (TR-FRET tracer displacement), KRas WT; conditions: TR-FRET tracer displacement, KRas WT
# T7 construct: Biotinylated KRas (corresponding to amino acids 1-169, produced at Accelegan Inc.); biotin (biotinylated); purchased Accelegan Inc
# T7 sequence (P01116 1-169 isoform P01116-2): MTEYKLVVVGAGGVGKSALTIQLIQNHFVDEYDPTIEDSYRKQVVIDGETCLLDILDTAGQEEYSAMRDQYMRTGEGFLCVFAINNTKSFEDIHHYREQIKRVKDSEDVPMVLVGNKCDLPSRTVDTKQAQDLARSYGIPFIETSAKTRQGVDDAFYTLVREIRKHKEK
# [9] = test system: KRas-mediated phosphorylation of ERK in H727 cells; experiment: Inhibition of KRas-mediated phosphorylation of ERK (Cisbio HTRF pERK), H727 cells; assay type: cell-based; conditions: Homo sapiens, NCI-H727, H727 cells; HTRF pERK
# Procedure, shortened: as §1
# [10] = target: T8, KRas^G12A (Homo sapiens, UniProt P01116, G12A); experiment: KRas binding assay (TR-FRET tracer displacement), KRas G12A; conditions: TR-FRET tracer displacement, KRas G12A
# T8 construct: Biotinylated KRas (corresponding to amino acids 1-169, produced at Accelegan Inc.); biotin (biotinylated); purchased Accelegan Inc
# T8 sequence (P01116 1-169 isoform P01116-2 G12A): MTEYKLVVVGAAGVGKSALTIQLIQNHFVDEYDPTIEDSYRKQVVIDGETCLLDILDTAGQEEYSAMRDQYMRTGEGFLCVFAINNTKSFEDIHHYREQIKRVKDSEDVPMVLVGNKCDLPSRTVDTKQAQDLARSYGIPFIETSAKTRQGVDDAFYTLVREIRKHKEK
# [11] = target: T9, KRas^G12V (Homo sapiens, UniProt P01116, G12V); experiment: KRas binding assay (TR-FRET tracer displacement), KRas G12V
# T9 construct: Biotinylated KRas (corresponding to amino acids 1-169, produced at Accelegan Inc.); biotin (biotinylated); purchased Accelegan Inc
# T9 sequence (P01116 1-169 isoform P01116-2 G12V): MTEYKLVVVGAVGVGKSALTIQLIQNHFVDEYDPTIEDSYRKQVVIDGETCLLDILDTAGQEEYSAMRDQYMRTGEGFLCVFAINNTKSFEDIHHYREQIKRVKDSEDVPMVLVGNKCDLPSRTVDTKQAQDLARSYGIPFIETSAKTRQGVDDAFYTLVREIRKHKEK
# T1 sequence (P01116 1-169 isoform P01116-2 G13D): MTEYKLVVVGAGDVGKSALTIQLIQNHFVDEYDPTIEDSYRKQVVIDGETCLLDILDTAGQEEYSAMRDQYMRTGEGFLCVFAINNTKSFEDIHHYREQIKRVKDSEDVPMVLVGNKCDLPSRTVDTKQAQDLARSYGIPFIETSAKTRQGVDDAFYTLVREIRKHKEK
IC50 [1],IC50 [2],IC50 [3],IC50 [4],IC50 [5],IC50 [6],IC50 [7],IC50 [8],IC50 [9],IC50 [10],IC50 [11],Compound
10 nM,17 nM,9 nM,9 nM,2 nM,5960 nM,9 nM,11 nM,1510 nM,11 nM,3 nM,"Oc1cc(Cl)c(C2CC2)c(-c2ncc3c(N4C[C@H]5C[C@@H](C4)[C@H](O)C5)nc(OCC45CCCN4CCC5)nc3c2F)c1 [Example 738, (1S,5S,6R)-3-(7-(3-chloro-2-cyclopropyl-5-hydroxyphenyl)-8-fluoro-2-((tetrahydro-1H-pyrrolizin-7a(5H)-yl)methoxy)pyrido[4,3-d]pyrimidin-4-yl)-3-azabicyclo[3.2.1]octan-6-ol]"
< 2 nM,3 nM,< 2 nM,< 2 nM,< 2 nM,> 10000 nM,< 2 nM,< 2 nM,> 10000 nM,2 nM,< 2 nM,"O=C1NC(=O)C2(CCCN(c3nc(OCC45CCCN4CCC5)nc4c(F)c(-c5cc(O)cc(Cl)c5C5CC5)ncc34)C2)N1 (stereo not drawn) [Example 739, 7-(7-(3-chloro-2-cyclopropyl-5-hydroxyphenyl)-8-fluoro-2-((hexahydro-1H-pyrrolizin-7a-yl)methoxy)pyrido[4,3-d]pyrimidin-4-yl)-1,3,7-triazaspiro[4.5]decane-2,4-dione]"

# Second part, the compound before the results:
Compound,IC50 [1],IC50 [2],IC50 [3],IC50 [4],IC50 [5],IC50 [6],IC50 [7],IC50 [8],IC50 [9],IC50 [10],IC50 [11]
"Cc1cc2[nH]ncc2c(-c2ncc3c(N4CCCC5(CNC(=O)N5)C4)nc(OCC45CCCN4CCC5)nc3c2F)c1C (stereo not drawn) [Example 729, 7-(7-(5,6-dimethyl-1H-indazol-4-yl)-8-fluoro-2-((hexahydro-1H-pyrrolizin-7a-yl)methoxy)pyrido[4,3-d]pyrimidin-4-yl)-1,3,7-triazaspiro[4.5]decan-2-one]",46 nM,26 nM,40 nM,53 nM,61 nM,> 10000 nM,40 nM,45 nM,> 10000 nM,48 nM,36 nM
"Cc1cc2[nH]ncc2c(-c2ncc3c(N4CCCn5nc(C(=O)N(C)C)cc5C4)nc(OCC45CCCN4CCC5)nc3c2F)c1C [Example 730, 5-(7-(5,6-dimethyl-1H-indazol-4-yl)-8-fluoro-2-((hexahydro-1H-pyrrolizin-7a-yl)methoxy)pyrido[4,3-d]pyrimidin-4-yl)-N,N-dimethyl-5,6,7,8-tetrahydro-4H-pyrazolo[1,5-a][1,4]diazepine-2-carboxamide]",513 nM,35 nM,113 nM,444 nM,203 nM,> 10000 nM,131 nM,343 nM,> 10000 nM,251 nM,75 nM
"Cc1cc2[nH]ncc2c(-c2ncc3c(N4CCC[C@]5(C4)NC(=O)NC5=O)nc(OC[C@@]45CCCN4C[C@H](F)C5)nc3c2F)c1C [Example 731, (5R)-7-(7-(5,6-dimethyl-1H-indazol-4-yl)-8-fluoro-2-(((2R,7aS)-2-fluorohexahydro-1H-pyrrolizin-7a-yl)methoxy)pyrido[4,3-d]pyrimidin-4-yl)-1,3,7-triazaspiro[4.5]decane-2,4-dione]",13 nM,15 nM,12 nM,13 nM,10 nM,> 10000 nM,11 nM,12 nM,> 10000 nM,13 nM,8 nM
"Cc1cc2[nH]ncc2c(-c2ncc3c(N4CCC[C@]5(C4)NC(=O)NC5=O)nc(OCC4(CN(C)C)CC4)nc3c2F)c1C [Example 732, (5R)-7-(7-(5,6-dimethyl-1H-indazol-4-yl)-2-((1-((dimethylamino)methyl)cyclopropyl)methoxy)-8-fluoropyrido[4,3-d]pyrimidin-4-yl)-1,3,7-triazaspiro[4.5]decane-2,4-dione]",60 nM,113 nM,63 nM,79 nM,47 nM,> 10000 nM,43 nM,50 nM,> 10000 nM,61 nM,31 nM
